Measurements taken from ChEMBL document CHEMBL5729331, “Small molecule activators of nicotinamide phosphoribosyltransferase (NAMPT) and uses thereof” (2022).
pEC50: −log10 of the molar value.

These compounds were tested against Nicotinamide phosphoribosyltransferase (Homo sapiens, UniProt P43490) (assay: Enzyme Assay and NMN Detection: NAMPT reaction was performed in 50 mM HEPES, pH 7.5, containing 5 mM MgCl2, 0.1% Prionex, 0.005% Tween 20, and 1 mM TCEP at room temperature in Greiner 384-well black polypropylene plates. […] Following 2 h incubation the reaction was stopped by addition 2.5 ul 20% acetophenone in dimethyl sulfoxide (DMSO) and 2.5 ul 2 MKOH. Plates were centrifuges and added with 10.5 ul 88% formic acid. […] The increased concentration of NMN was determined from a calibration curve obtained at the time of experiment.).
Nicotinamide phosphoribosyltransferase, sequence (P43490 whole entry): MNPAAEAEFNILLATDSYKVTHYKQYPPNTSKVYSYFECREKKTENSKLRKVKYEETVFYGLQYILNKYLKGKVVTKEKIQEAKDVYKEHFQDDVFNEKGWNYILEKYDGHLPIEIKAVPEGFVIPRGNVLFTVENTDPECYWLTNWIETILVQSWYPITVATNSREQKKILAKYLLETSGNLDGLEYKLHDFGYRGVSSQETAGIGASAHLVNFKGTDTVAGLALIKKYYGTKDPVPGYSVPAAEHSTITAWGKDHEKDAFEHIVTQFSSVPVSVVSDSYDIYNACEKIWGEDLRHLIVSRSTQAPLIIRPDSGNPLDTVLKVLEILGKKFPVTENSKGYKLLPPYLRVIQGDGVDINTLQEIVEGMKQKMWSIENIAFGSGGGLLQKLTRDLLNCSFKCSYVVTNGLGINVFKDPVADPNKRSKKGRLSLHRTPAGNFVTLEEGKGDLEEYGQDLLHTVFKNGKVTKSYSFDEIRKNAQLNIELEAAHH

Row | pEC50 | SMILES
1 | < 4.70 | CCOC(=O)c1ccc(NC(=O)NCc2ccncc2)nc1
2 | < 4.70 | CCOC(=O)c1ccc(NC(=O)NCc2ccncc2)cn1
3 | < 4.70 | NC(=O)c1ccc(NC(=O)NCc2ccncc2)nc1
